From paper PMC11581222, “Inhibition of CCl4-induced liver inflammation and fibrosis by a NEU3 inhibitor” (PLOS ONE, 2024)
Where two headings read alike, the source gives them in different places.

Tests used:
Norepinephrine (NET) = Norepinephrine (NET) (Homo sapiens, UniProt P23975); test: Eurofins radioligand receptor binding inhibition; details: 10 μM 2AP
Protocol: (§1) CYP450 enzymes and a panel of receptors were assessed for inhibition by 10 μM 2AP using HitProfilingScreen + CYP450 LeadHunter Panel at Eurofins (Eurofins Panlabs Discovery Services, New Taipei City, Taiwan). Briefly, human recombinant CYP450 enzymes were preincubated at 37°C for 15 minutes with 10 μM 2AP. Enzyme activity was assessed by cleavage of the CYP450 fluorogenic substrates dibenzyl fluorescein (aromatase / CYP19A1, CYP2C8), 3-Cyano-7-ethoxycoumarin (CYP1A2, CYP2B6, CYP2C19, CYP2C9, and CYP2D6), or 7-Benzyloxy-4-(trifluoromethyl)-coumarin (CYP3A4), as described previously. Inhibition of receptor binding was assessed using a panel of receptors expressed on cell lines or using tissue extracts and preincubated at 25°C for 30–120 minutes with 10 μM 2AP. Cells or tissue extracts were then incubated with radiolabeled specific ligands a described (https://www.eurofinsdiscovery.com/catalog/hitprofilingscreen-cyp450-leadhunter-panel-tw/PP115) and inhibition of binding was reported (S2 Table).

[1] = target: Serotonin (5-Hydroxytryptamine) 5-HT2B (Homo sapiens, UniProt P41595); test: Eurofins radioligand receptor binding inhibition; details: 10 μM 2AP
Protocol: as §1

human recombinant NEU3 = test system: human recombinant NEU3; design: method as in PMID 33144389; details: cited from earlier work
Dopamine D2S = Dopamine D2S (Homo sapiens, UniProt P14416); test: Eurofins radioligand receptor binding inhibition; design: dose or concentration left out as unconfirmed
GABAA Flunitrazepam = test: Eurofins radioligand receptor binding inhibition; details: 10 μM 2AP
[2] = target: Nicotinic Acetylcholine α1, Bungarotoxin (Homo sapiens, UniProt P02708+P07510+Q07001); test: biochemical; format: binding; design: dose or concentration left out as unconfirmed
Opiate μ (OP3, MOP) = Opiate μ (OP3, MOP) (Homo sapiens, UniProt P35372); test: Eurofins radioligand receptor binding inhibition; design: dose or concentration left out as unconfirmed
Adrenergic α1B = Adrenergic α1B (Rattus norvegicus, UniProt P15823); test: Eurofins radioligand receptor binding inhibition; details: 10 μM 2AP
Adrenergic α2A = Adrenergic α2A (Homo sapiens, UniProt P08913); test: Eurofins radioligand receptor binding inhibition; details: 10 μM 2AP
GABAA Muscimol = test: Eurofins radioligand receptor binding inhibition; details: 10 μM 2AP
Adrenergic β2 = Adrenergic β2 (Homo sapiens, UniProt P07550); test: Eurofins radioligand receptor binding inhibition; design: dose or concentration left out as unconfirmed
[3] = test system: Calcium Channel L-Type, Dihydropyridine; test: Eurofins radioligand receptor binding inhibition; details: 10 μM 2AP
CYP2B6 = CYP2B6 (Homo sapiens, UniProt P20813); test: Eurofins CYP450 inhibition, 3-Cyano-7-ethoxycoumarin substrate; format: in vitro ADME; details: recombinant CYP2B6, probe 3-cyano-7-ethoxycoumarin, 10 μM 2AP
CYP2C9 = CYP2C9 (Homo sapiens, UniProt P11712); test: as above; format: in vitro ADME; details: recombinant CYP2C9, probe 3-cyano-7-ethoxycoumarin, 10 μM 2AP
Potassium Channel [KATP] = test: Eurofins radioligand receptor binding inhibition; details: 10 μM 2AP
Muscarinic M3 = Muscarinic M3 (Homo sapiens, UniProt P20309); test: Eurofins radioligand receptor binding inhibition; details: 10 μM 2AP
Adrenergic α1A = Adrenergic α1A (Rattus norvegicus, UniProt P43140); test: Eurofins radioligand receptor binding inhibition; details: 10 μM 2AP
Sodium Channel, Site 2 = test: Eurofins radioligand receptor binding inhibition; details: 10 μM 2AP
mouse recombinant NEU3 = test system: mouse recombinant NEU3; design: method as in PMID 33144389; details: pH 6.9, read-out: IC50, inhibition of release of active TGF-β1 from human latent TGF-β1; cited from earlier work
CYP2C8 = CYP2C8 (Homo sapiens, UniProt P10632); test: Eurofins CYP450 inhibition, dibenzyl fluorescein substrate; format: in vitro ADME; details: recombinant CYP2C8, probe dibenzyl fluorescein, 10 μM 2AP
Aromatase / CYP19A1 = Aromatase / CYP19A1 (Homo sapiens, UniProt P11511); test: as above; format: biochemical; details: 10 μM 2AP
Dopamine D1 = Dopamine D1 (Homo sapiens, UniProt P21728); test: Eurofins radioligand receptor binding inhibition; design: dose or concentration left out as unconfirmed
CYP2C19 = CYP2C19 (Homo sapiens, UniProt P33261); test: Eurofins CYP450 inhibition, 3-Cyano-7-ethoxycoumarin substrate; format: in vitro ADME; details: recombinant CYP2C19, probe 3-cyano-7-ethoxycoumarin, 10 μM 2AP
Imidazoline I2, Central = test: Eurofins radioligand receptor binding inhibition; details: 10 μM 2AP
Adenosine A1 = Adenosine A1 (Homo sapiens, UniProt P30542); test: Eurofins radioligand receptor binding inhibition; design: dose or concentration left out as unconfirmed
[4] = target: Nicotinic Acetylcholine α3β4 (Homo sapiens, UniProt P30926+P32297); test: Eurofins radioligand receptor binding inhibition; details: 10 μM 2AP
Adenosine A2A = Adenosine A2A (Homo sapiens, UniProt P29274); test: Eurofins radioligand receptor binding inhibition; details: 10 μM 2AP
[5] = test system: aromatase/CYP19A1, CYP2C8, CYP1A2, CYP2B6, CYP2C19, CYP2C9, CYP2D6 and CYP3A4 (mean over 8 enzymes); test: Eurofins CYP450 panel, mean over 8 enzymes; format: in vitro ADME; details: human, recombinant CYP450 enzymes; 10 μM 2AP; mean over 8 CYP450 enzymes; read-out: percent inhibition of CYP450 enzymes, mean ± SD, n = 8
Muscarinic M2 = Muscarinic M2 (Homo sapiens, UniProt P08172); test: Eurofins radioligand receptor binding inhibition; design: dose or concentration left out as unconfirmed
Sigma σ1 = Sigma σ1 (Homo sapiens, UniProt Q99720); test: Eurofins radioligand receptor binding inhibition; details: 10 μM 2AP
hERG potassium channel = hERG potassium channel (Homo sapiens, UniProt Q12809); test: Eurofins radioligand receptor binding inhibition; details: 10 μM 2AP
28 receptors = test: Eurofins panel of 28 receptors, inhibition of binding; details: 10 μM 2AP
Cannabinoid CB1 = Cannabinoid CB1 (Homo sapiens, UniProt P21554); test: Eurofins radioligand receptor binding inhibition; design: dose or concentration left out as unconfirmed
CYP3A4 = CYP3A4 (Homo sapiens, UniProt P08684); test: Eurofins CYP450 inhibition, 7-Benzyloxy-4-(trifluoromethyl)-coumarin substrate; format: in vitro ADME; details: recombinant CYP3A4, probe 7-benzyloxy-4-(trifluoromethyl)-coumarin, 10 μM 2AP
[6] = test system: CCl4-induced liver inflammation and fibrosis; details: for body weight, CCl4-induced weight loss: 1 mg/kg 2AP i.p. daily from day 21
Glutamate = test: Eurofins radioligand receptor binding inhibition; details: 10 μM 2AP
Histamine H1 = Histamine H1 (Homo sapiens, UniProt P35367); test: Eurofins radioligand receptor binding inhibition; details: 10 μM 2AP
CYP2D6 = CYP2D6 (Homo sapiens, UniProt P10635); test: Eurofins CYP450 inhibition, 3-Cyano-7-ethoxycoumarin substrate; format: in vitro ADME; details: recombinant CYP2D6, probe 3-cyano-7-ethoxycoumarin, 10 μM 2AP
Adrenergic β1 = Adrenergic β1 (Homo sapiens, UniProt P08588); test: Eurofins radioligand receptor binding inhibition; details: 10 μM 2AP
[7] = test system: bleomycin-induced pulmonary fibrosis; details: cited from earlier work; for pulmonary fibrosis: injections, male mice
CYP1A2 = CYP1A2 (Homo sapiens, UniProt P05177); test: Eurofins CYP450 inhibition, 3-Cyano-7-ethoxycoumarin substrate; format: in vitro ADME; details: recombinant CYP1A2, probe 3-cyano-7-ethoxycoumarin, 10 μM 2AP
Protocol: as §1

Prostanoid EP4 = Prostanoid EP4 (Homo sapiens, UniProt P35408); test: Eurofins radioligand receptor binding inhibition; details: 10 μM 2AP
[8] = test system: high fat diet (HFD)-induced liver inflammation, weight gain and steatosis; design: method as in PMID 33039353; details: injections, cited from earlier work
[9] = test system: MCD diet-induced liver fibrosis; design: method as in PMID 33378413; details: cited from earlier work
[10] = CCl4+2AP vs CCl4, male and female mice
[11] = treatments vs control (oil) mice

Sequence of Serotonin (5-Hydroxytryptamine) 5-HT2B (P41595 whole entry): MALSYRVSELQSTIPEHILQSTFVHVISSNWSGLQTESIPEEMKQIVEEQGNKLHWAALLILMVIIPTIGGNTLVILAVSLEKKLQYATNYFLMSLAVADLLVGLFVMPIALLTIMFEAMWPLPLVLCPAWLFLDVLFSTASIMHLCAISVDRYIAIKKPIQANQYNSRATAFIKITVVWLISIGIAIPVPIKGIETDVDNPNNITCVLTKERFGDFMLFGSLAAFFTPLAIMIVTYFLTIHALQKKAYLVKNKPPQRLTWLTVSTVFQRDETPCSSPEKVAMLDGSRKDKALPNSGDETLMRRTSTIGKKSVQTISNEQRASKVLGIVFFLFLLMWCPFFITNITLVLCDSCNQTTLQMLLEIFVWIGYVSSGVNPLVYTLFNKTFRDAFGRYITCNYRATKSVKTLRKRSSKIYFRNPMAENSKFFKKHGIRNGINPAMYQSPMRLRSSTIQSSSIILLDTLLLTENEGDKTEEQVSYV
Sequence of Sigma σ1 (Q99720 whole entry): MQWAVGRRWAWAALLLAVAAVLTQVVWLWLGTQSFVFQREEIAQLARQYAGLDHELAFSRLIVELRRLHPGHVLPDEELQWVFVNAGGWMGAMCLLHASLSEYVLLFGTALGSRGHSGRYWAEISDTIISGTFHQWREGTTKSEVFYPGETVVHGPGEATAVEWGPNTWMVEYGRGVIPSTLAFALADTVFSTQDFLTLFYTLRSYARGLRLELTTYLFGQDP
Sequence of Opiate μ (OP3, MOP) (P35372 whole entry): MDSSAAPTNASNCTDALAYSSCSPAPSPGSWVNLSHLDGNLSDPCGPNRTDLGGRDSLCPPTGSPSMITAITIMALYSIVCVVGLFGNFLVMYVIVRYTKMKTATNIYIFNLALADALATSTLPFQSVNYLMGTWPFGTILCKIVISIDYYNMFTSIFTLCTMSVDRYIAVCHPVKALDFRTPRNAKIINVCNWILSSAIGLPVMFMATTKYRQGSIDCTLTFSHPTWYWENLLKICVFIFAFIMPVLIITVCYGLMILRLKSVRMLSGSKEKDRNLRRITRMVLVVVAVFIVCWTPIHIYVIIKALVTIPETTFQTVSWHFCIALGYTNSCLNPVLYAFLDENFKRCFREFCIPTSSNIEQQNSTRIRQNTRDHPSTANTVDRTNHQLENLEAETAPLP
Sequence of CYP2C9 (P11712 whole entry): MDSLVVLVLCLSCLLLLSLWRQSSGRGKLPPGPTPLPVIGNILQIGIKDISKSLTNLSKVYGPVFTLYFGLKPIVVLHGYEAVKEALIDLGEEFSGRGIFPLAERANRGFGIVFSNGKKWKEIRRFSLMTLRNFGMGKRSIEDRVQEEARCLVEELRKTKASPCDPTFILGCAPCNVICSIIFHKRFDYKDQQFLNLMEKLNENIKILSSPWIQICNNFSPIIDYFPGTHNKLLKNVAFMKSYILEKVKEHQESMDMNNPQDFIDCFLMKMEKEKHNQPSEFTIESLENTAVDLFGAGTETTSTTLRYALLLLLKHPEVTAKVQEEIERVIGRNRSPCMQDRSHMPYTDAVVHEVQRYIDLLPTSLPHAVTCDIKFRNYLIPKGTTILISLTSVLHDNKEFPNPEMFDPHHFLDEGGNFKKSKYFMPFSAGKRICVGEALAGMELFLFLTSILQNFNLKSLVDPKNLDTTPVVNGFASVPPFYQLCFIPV
Sequence of CYP1A2 (P05177 whole entry): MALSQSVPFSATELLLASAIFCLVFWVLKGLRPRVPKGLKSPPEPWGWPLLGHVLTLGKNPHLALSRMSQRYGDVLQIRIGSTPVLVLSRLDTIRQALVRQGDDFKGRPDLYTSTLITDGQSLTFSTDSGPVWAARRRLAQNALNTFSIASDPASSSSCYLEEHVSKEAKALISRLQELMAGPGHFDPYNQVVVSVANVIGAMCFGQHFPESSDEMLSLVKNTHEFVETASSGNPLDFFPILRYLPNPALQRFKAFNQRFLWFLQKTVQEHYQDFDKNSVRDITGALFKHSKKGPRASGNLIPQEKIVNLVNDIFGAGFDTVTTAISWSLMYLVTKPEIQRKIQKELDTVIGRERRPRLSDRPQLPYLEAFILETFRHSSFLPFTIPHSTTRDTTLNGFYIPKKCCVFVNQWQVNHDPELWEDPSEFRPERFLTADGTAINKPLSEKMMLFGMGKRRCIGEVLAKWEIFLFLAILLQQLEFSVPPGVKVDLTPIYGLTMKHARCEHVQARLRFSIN
Sequence of Adrenergic β1 (P08588 whole entry): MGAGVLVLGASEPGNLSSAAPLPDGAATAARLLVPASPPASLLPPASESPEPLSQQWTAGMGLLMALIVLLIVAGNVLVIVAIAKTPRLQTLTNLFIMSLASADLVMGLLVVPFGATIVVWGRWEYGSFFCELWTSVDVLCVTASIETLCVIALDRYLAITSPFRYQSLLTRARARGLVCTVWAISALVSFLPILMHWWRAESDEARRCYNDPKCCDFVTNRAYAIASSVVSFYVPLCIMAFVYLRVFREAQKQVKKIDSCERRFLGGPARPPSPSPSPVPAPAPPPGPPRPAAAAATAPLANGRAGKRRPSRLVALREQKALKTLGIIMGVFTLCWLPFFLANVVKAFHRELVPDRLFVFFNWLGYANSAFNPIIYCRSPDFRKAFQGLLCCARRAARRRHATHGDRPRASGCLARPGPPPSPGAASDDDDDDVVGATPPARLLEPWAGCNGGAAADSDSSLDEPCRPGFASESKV
Sequence of Prostanoid EP4 (P35408 whole entry): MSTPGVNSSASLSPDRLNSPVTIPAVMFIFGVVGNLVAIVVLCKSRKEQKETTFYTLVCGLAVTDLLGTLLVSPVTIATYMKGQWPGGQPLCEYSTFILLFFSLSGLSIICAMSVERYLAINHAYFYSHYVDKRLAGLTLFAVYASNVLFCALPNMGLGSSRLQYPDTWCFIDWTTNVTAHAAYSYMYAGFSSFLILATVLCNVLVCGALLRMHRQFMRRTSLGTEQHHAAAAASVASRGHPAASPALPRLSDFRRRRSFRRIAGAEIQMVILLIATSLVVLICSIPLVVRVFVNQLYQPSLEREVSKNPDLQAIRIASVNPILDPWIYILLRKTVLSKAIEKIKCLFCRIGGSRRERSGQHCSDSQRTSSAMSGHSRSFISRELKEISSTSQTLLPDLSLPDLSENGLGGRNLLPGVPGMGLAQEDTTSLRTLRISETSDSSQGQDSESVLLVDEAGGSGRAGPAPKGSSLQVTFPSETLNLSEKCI
Sequence of Adenosine A2A (P29274 whole entry): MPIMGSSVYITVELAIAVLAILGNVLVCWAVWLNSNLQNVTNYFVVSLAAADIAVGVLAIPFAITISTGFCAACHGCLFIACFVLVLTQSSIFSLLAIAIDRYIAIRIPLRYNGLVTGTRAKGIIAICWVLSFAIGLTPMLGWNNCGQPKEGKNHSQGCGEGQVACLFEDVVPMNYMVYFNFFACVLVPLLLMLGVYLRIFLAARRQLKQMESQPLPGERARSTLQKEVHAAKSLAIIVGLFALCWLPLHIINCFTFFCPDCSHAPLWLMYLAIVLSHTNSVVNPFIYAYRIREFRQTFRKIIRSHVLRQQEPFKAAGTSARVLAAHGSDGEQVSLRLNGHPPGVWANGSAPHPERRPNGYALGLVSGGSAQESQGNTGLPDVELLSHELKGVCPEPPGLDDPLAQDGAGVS
Sequence of Aromatase / CYP19A1 (P11511 whole entry): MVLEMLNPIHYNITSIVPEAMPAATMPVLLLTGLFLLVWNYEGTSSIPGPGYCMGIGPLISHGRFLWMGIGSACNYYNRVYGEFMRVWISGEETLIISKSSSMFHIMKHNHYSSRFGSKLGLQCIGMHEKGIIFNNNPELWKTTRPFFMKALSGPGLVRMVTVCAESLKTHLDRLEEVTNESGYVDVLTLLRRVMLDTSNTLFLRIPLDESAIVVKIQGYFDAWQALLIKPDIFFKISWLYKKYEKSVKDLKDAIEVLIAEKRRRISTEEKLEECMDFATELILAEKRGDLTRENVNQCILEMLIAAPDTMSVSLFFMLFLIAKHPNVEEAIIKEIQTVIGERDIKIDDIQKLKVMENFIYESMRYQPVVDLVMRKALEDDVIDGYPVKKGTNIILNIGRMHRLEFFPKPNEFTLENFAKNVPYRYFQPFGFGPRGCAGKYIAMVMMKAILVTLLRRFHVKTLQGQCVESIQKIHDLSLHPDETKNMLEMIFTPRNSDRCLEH
Sequence of Nicotinic Acetylcholine α3β4 (P32297 32-505): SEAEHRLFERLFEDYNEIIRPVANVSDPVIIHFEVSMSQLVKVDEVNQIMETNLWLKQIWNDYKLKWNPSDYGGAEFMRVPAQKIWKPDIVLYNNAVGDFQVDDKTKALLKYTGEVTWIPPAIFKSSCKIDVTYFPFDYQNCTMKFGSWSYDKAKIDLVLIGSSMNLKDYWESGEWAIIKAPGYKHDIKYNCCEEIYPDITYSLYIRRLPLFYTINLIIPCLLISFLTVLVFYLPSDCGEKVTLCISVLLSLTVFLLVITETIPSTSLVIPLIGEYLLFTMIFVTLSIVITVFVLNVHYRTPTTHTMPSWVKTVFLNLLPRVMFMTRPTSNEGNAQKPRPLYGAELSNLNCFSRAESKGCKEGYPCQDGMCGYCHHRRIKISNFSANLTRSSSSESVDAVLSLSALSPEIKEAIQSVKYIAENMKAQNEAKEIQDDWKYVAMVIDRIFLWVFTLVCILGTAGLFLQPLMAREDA
Sequence of Nicotinic Acetylcholine α3β4 (P30926 22-498): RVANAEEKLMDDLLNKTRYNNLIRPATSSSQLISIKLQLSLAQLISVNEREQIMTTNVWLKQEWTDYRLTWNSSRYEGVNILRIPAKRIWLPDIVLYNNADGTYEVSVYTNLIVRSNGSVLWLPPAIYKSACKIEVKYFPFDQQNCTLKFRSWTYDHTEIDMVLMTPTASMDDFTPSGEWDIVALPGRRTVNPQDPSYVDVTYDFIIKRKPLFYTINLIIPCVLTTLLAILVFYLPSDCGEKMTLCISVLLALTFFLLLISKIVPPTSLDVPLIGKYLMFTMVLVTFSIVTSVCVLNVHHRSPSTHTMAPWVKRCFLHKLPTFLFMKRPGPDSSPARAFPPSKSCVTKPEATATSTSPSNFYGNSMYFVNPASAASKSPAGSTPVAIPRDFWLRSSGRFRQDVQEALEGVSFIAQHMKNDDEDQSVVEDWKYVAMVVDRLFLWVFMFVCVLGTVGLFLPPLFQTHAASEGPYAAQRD

CC(=O)c1ccccn1 [2AP, 2-acetyl pyridine]
inhibition at 10 µM (Norepinephrine (NET)): 7%
inhibition at 10 µM [1]: 12%
IC50 (human recombinant NEU3; human recombinant NEU3, pH 6.9, read-out: IC50, inhibition of release of active TGF-β1 from human latent TGF-β1): 40 ± 6 nM
inhibition (Dopamine D2S): -4%
% Inhibition (GABAA Flunitrazepam): -2%
inhibition [2]: 5%
inhibition (Opiate μ (OP3, MOP)): 0%
inhibition at 10 µM (Adrenergic α1B): 2%
inhibition at 10 µM (Adrenergic α2A): -5%
% Inhibition (GABAA Muscimol): 4%
inhibition (Adrenergic β2): 5%
% Inhibition [3]: 7%
inhibition at 10 µM (CYP2B6): 0%
inhibition at 10 µM (CYP2C9): 1%
% Inhibition (Potassium Channel [KATP]): -11%
inhibition at 10 µM (Muscarinic M3): 1%
inhibition at 10 µM (Adrenergic α1A): 5%
% Inhibition (Sodium Channel, Site 2): 13%
IC50 (mouse recombinant NEU3): 800 ± 170 nM
inhibition at 10 µM (CYP2C8): 0%
inhibition at 10 µM (Aromatase / CYP19A1): 1%
inhibition (Dopamine D1): -5%
inhibition at 10 µM (CYP2C19): 3%
% Inhibition (Imidazoline I2, Central): 3%
inhibition (Adenosine A1): 10%
inhibition at 10 µM [4]: -2%
inhibition at 10 µM (Adenosine A2A): 0%
inhibition at 10 µM [5]: 1.5 ± 1.2%
inhibition (Muscarinic M2): 4%
inhibition at 10 µM (Sigma σ1): 13%
inhibition at 10 µM (hERG potassium channel): 4%
inhibitory effect on an additional 28 receptors (28 receptors): no inhibitory effect
inhibition (Cannabinoid CB1): -1%
inhibition at 10 µM (CYP3A4): -2%
toxic effects of daily injections ([6]; 1 mg/kg 2AP i.p. daily, days 21-42): did not appear to have any obvious toxic effects
body weight, CCl4-induced weight loss ([6]; CCl4+2AP vs CCl4, female mice): response of female mice to 2AP treatment
body weight, CCl4-induced weight loss ([6]; CCl4+2AP vs CCl4, male and female combined, days 39 and 40): less weight loss
body weight, CCl4-induced weight loss ([6]; CCl4+2AP vs CCl4, male mice): not apparent in male mice
number of S100A8/MRP8 positive cells (neutrophils) in liver ([6]; CCl4+2AP vs CCl4, female mice): reduction in the number of S100A8/MRP8 positive cells
liver NEU3 staining [6, 10]: attenuated the CCl4-induced NEU3 staining
liver desialylation, PNA lectin staining [6, 10]: reduced PNA staining
liver fibrosis, picrosirius red staining [6, 10]: decreased picrosirius red staining
liver inflammation, vessels with accumulation of immune cells (H&E) [6, 10]: attenuated the CCl4 induced inflammation
number of Mac2 positive cells around liver vessels [6, 10]: decreased the number of Mac2 positive cells in the vessel areas
number of Mac2 positive cells in liver [6, 10]: decreased the number of Mac2 positive cells
steatosis, oil red O staining of liver [6, 10]: no significant differences in oil red O staining
liver hydroxyproline levels ([6]; CCl4+2AP vs CCl4, male mice): reduced hydroxyproline levels
kidney, spleen, heart, or brown fat weights at day 42 ([6]; mouse, in vivo): no significant effect
liver NEU3 staining ([6]; mouse, in vivo): no significant differences in NEU3 staining
liver desialylation, PNA lectin staining ([6]; mouse, in vivo): did not significantly change PNA staining
liver hydroxyproline levels ([6]; mouse, in vivo): no significant differences in hydroxyproline levels
liver weight at day 42 ([6]; mouse, in vivo): higher liver weights
lung weight at day 42 ([6]; mouse, in vivo): increased lung weights
number of Mac2 positive cells around liver vessels ([6]; mouse, in vivo): no significant differences in the number of Mac2 positive cells in vessel areas
number of Mac2 positive cells in liver ([6]; mouse, in vivo): no significant differences in the number of Mac2 positive cells
number of S100A8 positive cells in liver ([6]; mouse, in vivo): no significant differences in the number of S100A8 positive cells
overt effects on mice (body weight over 42 days) ([6]; mouse, in vivo): no overt effects on the mice
steatosis, oil red O staining of liver ([6]; mouse, in vivo): no significant change in the oil red O staining
white fat weight at day 42 ([6]; mouse, in vivo): reduced white fat
number of CD3 T cells in liver [6, 11]: no significant treatment-induced difference
number of CLEC4F positive Kupffer cells in liver [6, 11]: no significant treatment-induced difference
number of Mac2 positive cells in parenchymal areas of the liver ([6]; treatments vs control mice): no significant treatment-induced difference
% Inhibition (Glutamate): 27%
inhibition at 10 µM (Histamine H1): 8%
inhibition at 10 µM (CYP2D6): 2%
inhibition at 10 µM (Adrenergic β1): 3%
pulmonary fibrosis [7]: attenuate bleomycin-induced pulmonary fibrosis
inhibition at 10 µM (CYP1A2): 3%
inhibition at 10 µM (Prostanoid EP4): 7%

CC(=O)N[C@H]1[C@H]([C@H](O)[C@H](O)CO)OC(C(=O)O)=C[C@@H]1O [DANA, N-acetyl-2,3-dehydro-2-deoxyneuraminic acid]
IC50 (human recombinant NEU3; NEU3 species not specified for DANA, read-out: inhibition of active TGF-β1 release): > 100000 nM
HFD induced weight gain and steatosis [8]: inhibited HFD induced weight gain and steatosis
HFD-induced liver inflammation ([8]; male mice): attenuate high fat diet (HFD)-induced liver inflammation
MCD diet-induced liver fibrosis [9]: inhibits methionine and choline-deficient (MCD) diet-induced liver fibrosis
desialylation in lung fibrosis [7]: reversed desialylation in lung fibrosis
pulmonary fibrosis [7]: attenuate bleomycin-induced pulmonary fibrosis
